Measurements from the supplement of paper PMC10307832.

Tests used:
Assay in all cases: relative viability (nuclei count vs DMSO), 5 days (fraction); higher = more cells survive
Bexarotene = compound: C=C(c1ccc(C(=O)O)cc1)c1cc2c(cc1C)C(C)(C)CCC2(C)C [Bexarotene]
Procedure, shortened: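 After an overnight hold at 37 °C, lung cancer cell lines in 1536-well plates were pinned with five library-drug doses (not always all listed), each √10 from the next, on vehicle-anchored plates. The cells stayed 5 days without fresh medium, then a one-step fix, permeabilisation and Hoechst stain preceded 4× imaging and MetaXpress nuclear counts. A plate passed only with control CV under 25% and at least one doubling. Viability is the median, over plates, of treated-well nuclei relative to vehicle-well nuclei.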

Bexarotene + Olaparib = compound: C=C(c1ccc(C(=O)O)cc1)c1cc2c(cc1C)C(C)(C)CCC2(C)C [Bexarotene] + O=C(c1cc(Cc2n[nH]c(=O)c3ccccc23)ccc1F)N1CCN(C(=O)C2CC2)CC1 [Olaparib] (partner 8 µM)
Procedure, shortened: (§1)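 Medians of duplicate plates are given as relative viability. That measure is the nuclei count in treated wells divided by the count in vehicle wells. Counts were taken on 4× images of lung cancer cell lines in 1536-well plates, 5 days after pin-tool dosing the day after seeding with one drug alone or a fixed anchor-drug dose plus five library-drug doses (not always all listed) in √10 steps.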

Bexarotene + Phenformin = compound: C=C(c1ccc(C(=O)O)cc1)c1cc2c(cc1C)C(C)(C)CCC2(C)C [Bexarotene] + N=C(N)NC(=N)NCCc1ccccc1 [Phenformin] (partner 250 µM)
Procedure, shortened: as §1

Bexarotene + Trametinib = compound: C=C(c1ccc(C(=O)O)cc1)c1cc2c(cc1C)C(C)(C)CCC2(C)C [Bexarotene] + CC(=O)Nc1cccc(-n2c(=O)n(C3CC3)c(=O)c3c(Nc4ccc(I)cc4F)n(C)c(=O)c(C)c32)c1 [Trametinib] (partner 0.02 µM)
Procedure, shortened: as §1

Row | Cell Line | relative viability (Bexarotene; 0.08 µM) | relative viability (Bexarotene; 0.253 µM) | relative viability (Bexarotene; 0.8 µM) | relative viability (Bexarotene; 2.53 µM) | relative viability (Bexarotene; 8 µM) | relative viability (Bexarotene + Olaparib; first compound 0.08 µM) | relative viability (Bexarotene + Olaparib; first compound 0.253 µM) | relative viability (Bexarotene + Olaparib; first compound 0.8 µM) | relative viability (Bexarotene + Olaparib; first compound 2.53 µM) | relative viability (Bexarotene + Olaparib; first compound 8 µM) | relative viability (Bexarotene + Phenformin; first compound 0.08 µM) | relative viability (Bexarotene + Phenformin; first compound 0.253 µM) | relative viability (Bexarotene + Phenformin; first compound 0.8 µM) | relative viability (Bexarotene + Phenformin; first compound 2.53 µM) | relative viability (Bexarotene + Phenformin; first compound 8 µM) | relative viability (Bexarotene + Trametinib; first compound 0.08 µM) | relative viability (Bexarotene + Trametinib; first compound 0.253 µM) | relative viability (Bexarotene + Trametinib; first compound 0.8 µM) | relative viability (Bexarotene + Trametinib; first compound 2.53 µM) | relative viability (Bexarotene + Trametinib; first compound 8 µM)
1 | NCI-H1437 | 1.04 | 1.01 | 1.03 | 0.996 | 1.01 | 0.613 | 0.638 | 0.599 | 0.623 | 0.597 | 0.307 | 0.327 | 0.301 | 0.392 | 0.32 | 0.552 | 0.508 | 0.488 | 0.482 | 0.459
2 | NCI-H2085 | 0.981 | 0.979 | 0.903 | 0.869 | 0.901 | 0.691 | 0.709 | 0.693 | 0.676 | 0.694 | 0.759 | 0.646 | 0.531 | 0.678 | 0.718 | 0.486 | 0.59 | 0.4 | 0.449 | 0.535
3 | H3255 | 1.07 | 0.949 | 1.05 | 0.988 | 1.01 | 0.603 | 0.692 | 0.659 | 0.642 | 0.654 | 0.391 | 0.336 | 0.382 | 0.419 | 0.416 | 0.715 | 0.759 | 0.615 | 0.626 | 0.674
4 | NCI-H650 | 1.19 | 1.03 | 0.986 | 0.822 | 0.919 | 0.325 | 0.432 | 0.354 | 0.356 | 0.382 | 0.486 | 0.518 | 0.472 | 0.39 | 0.439 | 1.17 | 0.957 | 1.02 | 0.972 | 0.957
5 | LCLC-103H | 1.09 | 1.03 | 0.849 | 0.983 | 1.05 | 0.827 | 0.896 | 0.699 | 0.779 | 0.825 | 0.373 | 0.349 | 0.314 | 0.348 | 0.347 | 0.761 | 0.697 | 0.678 | 0.663 | 0.764
6 | LOU-NH91 | 1.04 | 0.957 | 0.952 | 0.869 | 0.926 | 0.905 | 0.932 | 0.875 | 0.841 | 0.823 | 0.687 | 0.673 | 0.595 | 0.6 | 0.49 | 0.81 | 0.856 | 0.807 | 0.795 | 0.759
7 | NCI-H1650 | 1.01 | 0.897 | 0.912 | 0.785 | 0.844 | 0.769 | 0.674 | 0.797 | 0.697 | 0.7 | 0.392 | 0.408 | 0.463 | 0.46 | 0.403 | 0.56 | 0.474 | 0.614 | 0.466 | 0.477
8 | NCI-H3122 | 1.05 | 1.11 | 1.03 | 1.04 | 1.05 | 0.667 | 0.751 | 0.617 | 0.645 | 0.618 | 0.379 | 0.367 | 0.359 | 0.385 | 0.372 | 0.25 | 0.229 | 0.191 | 0.238 | 0.224
9 | PC-3 [JPC-3] | 1.14 | 0.98 | 0.918 | 0.964 | 0.932 | 1.01 | 1.1 | 1.02 | 1.06 | 0.938 | 0.489 | 0.514 | 0.448 | 0.52 | 0.505 | 0.708 | 0.719 | 0.595 | 0.654 | 0.678
10 | NCI-H1651 | 1.08 | 0.987 | 1.01 | 1.02 | 1 | 0.201 | 0.226 | 0.208 | 0.206 | 0.197 | 0.446 | 0.318 | 0.307 | 0.357 | 0.345 | 0.861 | 0.867 | 0.884 | 0.875 | 0.827
11 | NCI-H2087 | 1.08 | 1.12 | 1.02 | 1.03 | 0.892 | 0.689 | 0.72 | 0.582 | 0.481 | 0.58 | 0.527 | 0.475 | 0.451 | 0.433 | 0.435 | 0.21 | 0.166 | 0.175 | 0.148 | 0.171
